The compounds below were run against T1, GCN2 (Homo sapiens, UniProt Q9P2K8) (assay: TR-FRET biochemical assay for inhibition of GCN2 activity). Details: 2 nM GCN2, 100 nM GFP-eIF2α, 150 μM ATP, 1.5 hours at 25° C.
T1 construct: purchased Carma Biosciences (so in the source)
T1 sequence (Q9P2K8 whole entry): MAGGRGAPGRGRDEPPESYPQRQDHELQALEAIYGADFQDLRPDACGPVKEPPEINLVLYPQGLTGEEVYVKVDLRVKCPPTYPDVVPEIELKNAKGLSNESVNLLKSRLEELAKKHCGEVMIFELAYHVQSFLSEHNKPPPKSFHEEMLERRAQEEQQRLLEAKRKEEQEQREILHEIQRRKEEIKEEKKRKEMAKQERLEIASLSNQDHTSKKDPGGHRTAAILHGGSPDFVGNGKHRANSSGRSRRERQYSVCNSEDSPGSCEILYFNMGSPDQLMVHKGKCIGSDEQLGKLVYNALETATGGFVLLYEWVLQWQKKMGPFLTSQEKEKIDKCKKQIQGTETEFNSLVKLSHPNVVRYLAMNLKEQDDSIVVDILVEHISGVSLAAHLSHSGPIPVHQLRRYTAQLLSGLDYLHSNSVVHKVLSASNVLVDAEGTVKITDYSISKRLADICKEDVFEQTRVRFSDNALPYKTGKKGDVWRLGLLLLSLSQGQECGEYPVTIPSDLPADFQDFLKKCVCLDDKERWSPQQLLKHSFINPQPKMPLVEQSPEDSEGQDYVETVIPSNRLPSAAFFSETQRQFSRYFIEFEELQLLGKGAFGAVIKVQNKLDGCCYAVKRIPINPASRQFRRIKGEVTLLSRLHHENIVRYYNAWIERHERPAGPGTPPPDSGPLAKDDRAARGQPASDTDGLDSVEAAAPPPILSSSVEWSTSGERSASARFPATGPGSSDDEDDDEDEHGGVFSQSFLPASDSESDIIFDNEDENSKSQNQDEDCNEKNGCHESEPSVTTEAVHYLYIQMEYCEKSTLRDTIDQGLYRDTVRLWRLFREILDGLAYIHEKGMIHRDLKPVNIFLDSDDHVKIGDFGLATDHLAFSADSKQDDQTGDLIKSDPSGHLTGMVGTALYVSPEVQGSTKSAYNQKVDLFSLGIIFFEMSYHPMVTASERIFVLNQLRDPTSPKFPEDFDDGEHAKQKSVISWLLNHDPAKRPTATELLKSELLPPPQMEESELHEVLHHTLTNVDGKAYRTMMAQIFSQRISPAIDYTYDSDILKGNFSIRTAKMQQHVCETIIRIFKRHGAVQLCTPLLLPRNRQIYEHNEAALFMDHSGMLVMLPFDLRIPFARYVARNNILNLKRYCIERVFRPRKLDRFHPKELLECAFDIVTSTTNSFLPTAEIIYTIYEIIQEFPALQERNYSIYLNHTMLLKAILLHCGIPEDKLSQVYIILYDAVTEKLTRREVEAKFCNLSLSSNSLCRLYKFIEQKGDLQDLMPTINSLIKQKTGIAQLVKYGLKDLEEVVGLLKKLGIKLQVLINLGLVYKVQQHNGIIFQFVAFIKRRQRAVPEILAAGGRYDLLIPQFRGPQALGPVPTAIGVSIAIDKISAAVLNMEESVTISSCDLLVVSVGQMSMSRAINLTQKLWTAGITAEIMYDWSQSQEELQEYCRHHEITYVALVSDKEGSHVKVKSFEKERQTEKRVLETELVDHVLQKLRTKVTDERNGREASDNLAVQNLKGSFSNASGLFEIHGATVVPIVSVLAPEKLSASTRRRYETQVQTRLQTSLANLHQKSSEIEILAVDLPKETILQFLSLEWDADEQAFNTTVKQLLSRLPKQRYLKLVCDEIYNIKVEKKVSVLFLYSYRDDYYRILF
Protocol: Exemplary compounds from the above Examples were tested for ability to inhibit GCN2 activity using a time resolved fluorescence energy transfer (TR-FRET) assay. Assay procedures and results are described below for Examples 12-105.
GCN2 protein was obtained from Carma Biosciences (cat #05-153). The protein was diluted in assay buffer (ThermoFisher Scientific, #PV6135), 2 mM dithiothreitol (DTT), to obtain a final concentration of 2 nM and 5 μL was plated in a 384-well white assay plate. Test compounds were serially diluted to 11 concentrations by 3-fold dilution in DMS0 and 10 nL of stock was plated into 384 well white assay plate. DMS0 was used as a vehicle control. GFP-eIF2α protein was obtained from ThermoFisher (cat #PV4809). The protein was diluted in assay buffer to a 2× concentration of 200 nM along with 300 μM ATP (final concentration of 100 nM GFP-eIF2α and 150 μM ATP) in the presence of 2 mM DTT and a […] was added to each well containing the GCN2 protein and test compound. The plate was incubated in the dark at 25° C. for 1.5 hours, shaking at 1250 rpm. Tb-anti P-eIF2α (ThermoFisher cat #PV4815) was diluted to a to a concentration of 1 nM in TR-FRET Dilution Buffer (ThermoFisher cat #PV3574). 10 μL of the Tb-anti P-eIF2a solution was added to the TR-FRET reaction. The plate was incubated in the dark for 2 h at 25° C. shaking at 600 rpm. The FRET signal from the plate was read on a Envision (PerkinElmer) plate reader: • Label 1: Excitation: 340 nm, bandwidth 30 nm; Emission: 495 nm, bandwidth 10 nm. Lag time: 100 μsec. Integration time: 400 μsec. Flashes: 30. • Label 2: Excitation: 340 nm, bandwidth 30 nm; Emission: 520 nm, bandwidth 25 nm. Lag time: 100 μsec. Integration time: 400 μsec. Flashes: 30
The data were analyzed using GraphPad Prism employing a 4-parameter sigmoidal curve fit.
Compound `N#Cc1cc(C(F)(F)F)cc(S(=O)(=O)Nc2ccc(F)c(CCc3cnc4[nH]ncc4c3)c2F)c1` [Compound 16, 3-cyano-N-[2,4-difluoro-3-(2-[1H-pyrazolo[3,4-b]pyridin-5-yl]ethyl)phenyl]-5-(trifluoromethyl)benzenesulfonamide] has an IC50 of 50 to 500 nM. `COc1ncc(F)cc1S(=O)(=O)Nc1ccc(F)c(COc2cnc3[nH]ncc3c2C)c1F` [Compound 20, N-[2,4-difluoro-3-[([4-methyl-1H-pyrazolo[3,4-b]pyridin-5-yl]oxy)methyl]phenyl]-5-fluoro-2-methoxypyridine-3-sulfonamide] was tested, and the IC50 was 50 to 500 nM. Work on `COc1ncc(C#N)cc1S(=O)(=O)Nc1ccc(F)c(CCc2cnc3[nH]ncc3c2)c1F` [Compound 10, 5-cyano-N-[2,4-difluoro-3-(2-[1H-pyrazolo[3,4-b]pyridin-5-yl]ethyl)phenyl]-2-methoxypyridine-3-sulfonamide] yielded an IC50 of under 50 nM. Compound `COc1ncc(Cl)cc1S(=O)(=O)Nc1ccnc(COc2cnc3[nH]nc(C)c3c2)c1F` [Compound 64, 5-chloro-N-[3-fluoro-2-[([3-methyl-1H-pyrazolo[3,4-b]pyridin-5-yl]oxy)methyl]pyridin-4-yl]-2-methoxypyridine-3-sulfonamide] has an IC50 of under 50 nM. Compound `COc1ncc(F)cc1S(=O)(=O)Nc1ccc(F)c(COc2cnc3[nH]nc(C)c3c2-c2ccccc2)c1F` [Compound 85, N-[2,4-difluoro-3-[([3-methyl-4-phenyl-1H-pyrazolo[3,4-b]pyridin-5-yl]oxy)methyl]phenyl]-5-fluoro-2-methoxypyridine-3-sulfonamide] has an IC50 of 50 to 500 nM. With `COc1ncc(F)cc1S(=O)(=O)Nc1ccc(F)c(COc2cnc3cnn(C)c3c2)c1F` [Compound 43, N-[2,4-difluoro-3-[([1-methylpyrazolo[4,3-b]pyridin-6-yl]oxy)methyl]phenyl]-5-fluoro-2-methoxypyridine-3-sulfonamide] the IC50 was under 50 nM. `COc1ncc(Cl)cc1S(=O)(=O)Nc1ncc(F)c(COc2cnc3[nH]nc(C)c3c2)c1Cl` [Compound 79, 5-chloro-N-[3-chloro-5-fluoro-4-[([3-methyl-1H-pyrazolo[3,4-b]pyridin-5-yl]oxy)methyl]pyridin-2-yl]-2-methoxypyridine-3-sulfonamide] showed an IC50 of under 50 nM. With `COc1ncc(F)cc1S(=O)(=O)Nc1ccc(F)c(CCc2cnc3cnn(C(C)C)c3c2)c1F` [Compound 36, N-[2,4-difluoro-3-(2-[1-isopropylpyrazolo[4,3-b]pyridin-6-yl]ethyl)phenyl]-5-fluoro-2-methoxypyridine-3-sulfonamide] the IC50 was 50 to 500 nM. `COc1ncc(F)cc1S(=O)(=O)Nc1ncc(F)c(COc2cnc3[nH]nc(C)c3c2)c1F` [Compound 56, N-[3,5-difluoro-4-[([3-methyl-1H-pyrazolo[3,4-b]pyridin-5-yl]oxy)methyl]pyridin-2-yl]-5-fluoro-2-methoxypyridine-3-sulfonamide] was tested, and the IC50 was under 50 nM. Work on `COc1ncc(Cl)cc1S(=O)(=O)Nc1ccc(F)c(OCc2cnc3[nH]ncc3c2)c1F` [Compound 4, 5-chloro-N-(2,4-difluoro-3-[1H-pyrazolo[3,4-b]pyridin-5-ylmethoxy]phenyl)-2-methoxypyridine-3-sulfonamide] yielded an IC50 of under 50 nM. `COc1ncc(C#N)cc1S(=O)(=O)Nc1ccc(F)c(NCc2cnc3[nH]nc(C)c3c2)c1F` [Compound 49, 5-cyano-N-[2,4-difluoro-3-[([3-methyl-1H-pyrazolo[3,4-b]pyridin-5-yl]methyl)amino]phenyl]-2-methoxypyridine-3-sulfonamide] gave an IC50 of 50 to 500 nM. Compound `CCn1ncc2ncc(CCc3c(F)ccc(NS(=O)(=O)c4cc(Cl)cnc4OC)c3F)cc21` [Compound 33, 5-chloro-N-[3-(2-[1-ethylpyrazolo[4,3-b]pyridin-6-yl]ethyl)-2,4-difluorophenyl]-2-methoxypyridine-3-sulfonamide] has an IC50 of under 50 nM. `Cc1ncc(F)cc1S(=O)(=O)Nc1ccc(F)c(COc2cnc3[nH]nc(C(C)C)c3c2)c1F` [Compound 54, N-[2,4-difluoro-3-[([3-isopropyl-1H-pyrazolo[3,4-b]pyridin-5-yl]oxy)methyl]phenyl]-5-fluoro-2-methylpyridine-3-sulfonamide] gave an IC50 of under 50 nM. Compound `COc1ncc(F)cc1S(=O)(=O)Nc1ccc(F)c(COc2cnc3[nH]nc(C)c3c2C2CCCC2)c1F` [Compound 92, N-(3-(((4-cyclopentyl-3-methyl-1H-pyrazolo[3,4-b]pyridin-5-yl)oxy)methyl)-2,4-difluorophenyl)-5-fluoro-2-methoxypyridine-3-sulfonamide] has an IC50 of 500 to 1000 nM. `COc1ncc(F)cc1S(=O)(=O)Nc1ccc(F)c(COc2cnn3cnc(C)c3c2)c1F` [Compound 82, N-[2,4-difluoro-3-[([5-methylimidazo[1,5-b]pyridazin-3-yl]oxy)methyl]phenyl]-5-fluoro-2-methoxypyridine-3-sulfonamide] gave an IC50 of under 50 nM. Compound `COc1ncc(Cl)cc1S(=O)(=O)Nc1ccc(F)c(COc2cnc3[nH]nc(C)c3c2)n1` [Compound 68, 5-chloro-N-[5-fluoro-6-[([3-methyl-1H-pyrazolo[3,4-b]pyridin-5-yl]oxy)methyl]pyridin-2-yl]-2-methoxypyridine-3-sulfonamide] has an IC50 of 50 to 500 nM. `COc1ncc(Cl)cc1S(=O)(=O)Nc1ccc(F)c(CCc2cnc3n2CCOC3)c1F` [Compound 5, 5-chloro-N-[2,4-difluoro-3-(2-[5H,6H,8H-imidazo[2,1-c][1,4]oxazin-3-yl]ethyl)phenyl]-2-methoxypyridine-3-sulfonamide] gave an IC50 of over 1000 nM. In the case of `COc1ncc(F)cc1S(=O)(=O)Nc1ccc(F)c(COc2cnc3[nH]nc(C(F)(F)F)c3c2)c1F` [Compound 44, N-[2,4-difluoro-3-([[3-(trifluoromethyl)-1H-pyrazolo[3,4-b]pyridin-5-yl]oxy]methyl)phenyl]-5-fluoro-2-methoxypyridine-3-sulfonamide], the IC50 is reported as under 50 nM. With `CCc1n[nH]c2ncc(OCc3c(F)ccc(NS(=O)(=O)c4cc(F)cnc4OC)c3F)cc12` [Compound 39, N-[3-[([3-ethyl-1H-pyrazolo[3,4-b]pyridin-5-yl]oxy)methyl]-2,4-difluorophenyl]-5-fluoro-2-methoxypyridine-3-sulfonamide] the IC50 was under 50 nM. With `COc1ncc(F)cc1S(=O)(=O)Nc1ccc(F)c(COc2cnc3[nH]ncc3c2OC)c1F` [Compound 23, N-[2,4-difluoro-3-[([4-methoxy-1H-pyrazolo[3,4-b]pyridin-5-yl]oxy)methyl]phenyl]-5-fluoro-2-methoxypyridine-3-sulfonamide] the IC50 was 50 to 500 nM. For `COc1ncc(F)cc1S(=O)(=O)Nc1ccc(F)c(COc2cnn3cnc(C(F)(F)F)c3c2)c1F` [Compound 83, N-[2,4-difluoro-3-([[5-(trifluoromethyl)imidazo[1,5-b]pyridazin-3-yl]oxy]methyl)phenyl]-5-fluoro-2-methoxypyridine-3-sulfonamide], the IC50 was under 50 nM. `COc1ncc(Cl)cc1S(=O)(=O)Nc1ccc(F)c(C(C)Nc2cnc3[nH]ncc3c2)c1F` (stereo not drawn) [Compound 29, 5-chloro-N-[2,4-difluoro-3-(1-[1H-pyrazolo[3,4-b]pyridin-5-ylamino]ethyl)phenyl]-2-methoxypyridine-3-sulfonamide] was tested, and the IC50 was over 1000 nM. `COc1ncc(Cl)cc1S(=O)(=O)Nc1ccc(F)c(CCc2cnc3[nH]ccc3c2)c1F` [Compound 12, 5-chloro-N-[2,4-difluoro-3-(2-[1H-pyrrolo[2,3-b]pyridin-5-yl]ethyl)phenyl]-2-methoxypyridine-3-sulfonamide] showed an IC50 of under 50 nM. Compound `COc1ncc(F)cc1S(=O)(=O)Nc1ccc(F)c(COc2cnc3[nH]ncc3c2C#N)c1F` [Compound 27, N-[3-[([4-cyano-1H-pyrazolo[3,4-b]pyridin-5-yl]oxy)methyl]-2,4-difluorophenyl]-5-fluoro-2-methoxypyridine-3-sulfonamide] has an IC50 of under 50 nM. In the case of `COc1ncc(Cl)cc1S(=O)(=O)Nc1ccc(F)c(COc2cnc3[nH]nc(C)c3c2)c1F` [Compound 14, 5-chloro-N-[2,4-difluoro-3-[([3-methyl-1H-pyrazolo[3,4-b]pyridin-5-yl]oxy)methyl]phenyl]-2-methoxypyridine-3-sulfonamide], the IC50 is reported as under 50 nM. `COc1ncc(Cl)cc1S(=O)(=O)Nc1ccc(F)c(CCc2cnc3cn(C)nc3c2)c1F` [Compound 17, 5-chloro-N-[2,4-difluoro-3-(2-[2-methylpyrazolo[4,3-b]pyridin-6-yl]ethyl)phenyl]-2-methoxypyridine-3-sulfonamide] showed an IC50 of under 50 nM. With `COc1ncc(F)cc1S(=O)(=O)Nc1ccc(F)c(CCc2cnc3cn(C(C)C)nc3c2)c1F` [Compound 37, N-[2,4-difluoro-3-(2-[2-isopropylpyrazolo[4,3-b]pyridin-6-yl]ethyl)phenyl]-5-fluoro-2-methoxypyridine-3-sulfonamide] the IC50 was 50 to 500 nM.
